Assay results: paper PMC11530593, “Structural mechanism of human HCN1 hyperpolarization-activated channel inhibition by ivabradine” (The Journal of Biological Chemistry, 2024)

Biological target: T1, WT hHCN1 (Homo sapiens, UniProt O60741)
T1 construct: Full-length WT or mutant human HCN1 were cloned into the pcDNA3.1 vector; expressed in transfected cells; host or cells: HeLa cells, pcDNA3.1 vector, transient lipofection
T1 sequence (O60741 1-890): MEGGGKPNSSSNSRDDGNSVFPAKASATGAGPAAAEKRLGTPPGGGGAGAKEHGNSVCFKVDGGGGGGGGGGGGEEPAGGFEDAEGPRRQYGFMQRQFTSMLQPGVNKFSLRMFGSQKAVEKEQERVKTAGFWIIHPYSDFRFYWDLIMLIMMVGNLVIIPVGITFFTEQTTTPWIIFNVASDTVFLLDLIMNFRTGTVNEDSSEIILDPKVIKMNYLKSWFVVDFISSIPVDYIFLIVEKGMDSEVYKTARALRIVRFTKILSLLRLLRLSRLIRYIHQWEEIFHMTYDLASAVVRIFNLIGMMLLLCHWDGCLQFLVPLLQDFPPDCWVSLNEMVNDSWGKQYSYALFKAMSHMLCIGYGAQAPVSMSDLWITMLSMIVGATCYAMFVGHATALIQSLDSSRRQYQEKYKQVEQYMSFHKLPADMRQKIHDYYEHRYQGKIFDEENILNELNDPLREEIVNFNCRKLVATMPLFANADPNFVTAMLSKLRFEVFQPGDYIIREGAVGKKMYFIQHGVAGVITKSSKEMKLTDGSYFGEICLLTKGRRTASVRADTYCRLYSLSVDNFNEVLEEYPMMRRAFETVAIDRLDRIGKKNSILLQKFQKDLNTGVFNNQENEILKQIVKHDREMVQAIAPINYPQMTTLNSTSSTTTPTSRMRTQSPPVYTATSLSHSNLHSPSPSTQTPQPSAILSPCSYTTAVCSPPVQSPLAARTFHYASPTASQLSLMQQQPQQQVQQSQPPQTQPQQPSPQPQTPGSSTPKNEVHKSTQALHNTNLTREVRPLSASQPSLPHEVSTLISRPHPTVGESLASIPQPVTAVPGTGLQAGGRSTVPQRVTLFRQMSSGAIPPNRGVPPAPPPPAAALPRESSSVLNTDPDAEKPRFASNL
Test: Whole-cell patch-clamp, Ih inhibition in transfected HeLa cells
Format: cell-based
Conditions: membrane potential -140 mV, read-out: half-maximal inhibitory concentration (IC50) of Ih inhibition
Experimental: The electrophysiological characteristics of WT hHCN1 were recorded using whole-cell patch-clamp. […] Activation of the HCN1 channel occurred in response to membrane hyperpolarization.
Full-length WT or mutant human HCN1 were cloned into the pcDNA3.1 vector for electrophysiological experiments. HeLa cells (from Thermo Fisher Scientific) cultured in Dulbecco's modified Eagle's medium (from Solarbio Life Science) + 10% fetal bovine serum (from ExCell Bio) at 37 °C were transiently transfected using lipofection, and whole-cell patch-clamp recordings were obtained using the Axon 200B amplifier (Molecular Devices) and clampex software (https://www.moleculardevices.com/products/axon-patch-clamp-system/acquisition-and-analysis-software/pclamp-software-suite), 36 to 48 h posttransfection. The extracellular solution contained 110 mM NaCl, 0.5 mM MgCl2, 1.8 mM CaCl2, 5 mM Hepes, 30 mM KCl, and pH was adjusted to 7.4 with NaOH, while the pipette solution contained 130 mM KCl, 10 mM NaCl, 0.5 mM MgCl2, 1 mM EGTA, 5 mM Hepes, and pH was adjusted to 7.4 with KOH. The recordings were performed at room temperature, voltage-clamp mode, and filtered at 1 kHz. The sampling frequency was 10 kHz, and the series resistance was limited to 5 MΩ. To elicit channel currents, step pulses of 3 s duration ranging from −180 mV to −30 mV were applied, followed by a step to −180 mV lasting 1.25 s. The tail currents evoked by the second step were used to determine the voltage-dependent activation curves and calculate the midpoint of activation potential (V1/2). The half maximal inhibitory concentration (IC50) of drugs was determined by recording currents at a pulse of −140 mV and analyzing current amplitudes at varying drug concentrations. The IC50 value was calculated using the Hill equation.

For `O=C(CCCN1CCC(O)(c2ccc(Cl)cc2)CC1)c1ccc(F)cc1` [haloperidol], the IC50 was 33.4 µM.
